Assay results taken from patent US20050267071A1, “Inhibitors of coronavirus protease and methods of use thereof” (Fulcrum Pharmaceuticals, Inc., priority 2003, published 2005).

Experiments:
[1] = molecular target: T1, SARS-associated coronavirus protease 3CL^pro (Severe acute respiratory syndrome coronavirus, UniProt P0C6U8); experiment: biochemical
[2] = molecular target: T1, SARS-associated coronavirus protease 3CL^pro; type: binding

O=C(OCc1cccc(B(O)O)c1)c1cc(B(O)O)cc([N+](=O)[O-])c1 [FL-101, 3-(3-Boronobenzyloxycarbonyl)-5-nitrophenylboronic acid]
Ki [1]: 21.7 ± 3.27 µM

O=C(Oc1ccccc1)c1cc(B(O)O)cc([N+](=O)[O-])c1 [FL-092, 3-Phenoxycarbonyl-5-nitrophenylboronic acid]
Ki [1]: 15.5 ± 6.5 µM

O=C(Oc1ccc(F)cc1)c1cc(B(O)O)cc([N+](=O)[O-])c1 [FL-085, 3-(4-Fluorophenoxycarbonyl)-5-nitrophenylboronic acid]
Ki [1]: 95 ± 30 µM

Nc1cc(B(O)O)cc(C(=O)O)c1 [FL-088, 3-amino-5-carboxylphenylboronic acid]
Ki [1]: 63 ± 14 µM

O=C(Oc1c(Cl)cccc1Cl)c1cc(B(O)O)cc([N+](=O)[O-])c1 [FL-080, 3-(2,6-Dichlorophenoxycarbonyl)-5-nitrophenylboronic acid]
Ki [1]: 62 ± 6 µM

O=C(OCc1cccc([N+](=O)[O-])c1)c1cc(B(O)O)cc([N+](=O)[O-])c1 [FL-094, 3-(3-Nitrobenzyloxycarbonyl)-5-nitrophenylboronic acid]
Ki [1]: 39 ± 5 µM

O=C(OCc1cccc2ccccc12)c1cc(B(O)O)cc([N+](=O)[O-])c1 [FL-148, 3-(1-Naphthalenemethoxycarbonyl)-5-nitrophenylboronic acid]
Ki [1]: 21.5 ± 8.7 µM

O=C(OC(C(=O)c1ccccc1)c1ccccc1)c1cc(B(O)O)cc([N+](=O)[O-])c1 (stereo not shown) [FL-097, 3-(1-Benzoyl-1-Phenylmethoxycarbonyl)-5-nitrophenylboronic acid]
Ki [1]: 153 ± 58 µM

O=C(OC(c1ccccc1)c1ccccc1)c1cc(B(O)O)cc([N+](=O)[O-])c1 [FL-149, 3-(1,1-Diphenylmethoxycarbonyl)-5-nitrophenylboronic acid]
Ki [1]: 313 ± 170 µM

O=C(Nc1cc(B(O)O)cc([N+](=O)[O-])c1)c1ccccc1F [FL-084, 3-(2-Fluorobenzamido)-5-nitrophenylboronic acid]
Ki [1]: > 1000 µM

O=C(OCc1ccccc1)c1cc(B(O)O)cc([N+](=O)[O-])c1 [FL-1201, 3-Benzyloxycarbonyl-5-nitrophenylboronic acid]
Ki [1]: 35.8 ± 11.5 µM

O=C(Oc1ccncc1)c1cc(B(O)O)cc([N+](=O)[O-])c1 [FL-087, 3-(4-pyridyloxycarbonyl)-5-nitro-phenylboronic acid]
Ki [1]: 66 ± 2 µM

O=C(Oc1cccnc1Cl)c1cc(B(O)O)cc([N+](=O)[O-])c1 [FL-089, 3-(2-Chloro-3-pyridyloxycarbonyl)-5-nitrophenylboronic acid]
Ki [1]: 241 ± 85 µM

O=C(Nc1cc(B(O)O)cc([N+](=O)[O-])c1)c1c(Cl)cccc1Cl [FL-108, 3-(2,6-Dichlorobenzamido)-5-nitrophenylboronic acid]
Ki [1]: 15 ± 7 µM

O=C(O)c1cc(O)cc(B(O)O)c1 [FL-172, (3-carboxy-5-hydroxyphenyl)boronic acid]
Ki [1]: 3.5 ± 3.9 µM

O=C(Oc1ccc2ccccc2c1)c1cc(B(O)O)cc([N+](=O)[O-])c1 [FL-151, 3-(2-Naphthoxycarbonyl)-5-nitrophenylboronic acid]
Ki [1]: 16.6 ± 6 µM

O=C(OCc1ccccc1COC(=O)c1cc(B(O)O)cc([N+](=O)[O-])c1)c1cc(B(O)O)cc([N+](=O)[O-])c1 [FL-136, 3-Borono-5-nitrobenzoic acid 1,2-benzenedimethanol ester]
Ki [1]: 8 ± 1.7 µM | ΔH (Binding Enthalpy of Selected Compounds to 3CL^pro) [2]: -9.2 kcal/mol

O=C(Nc1cc(B(O)O)ccc1Cl)c1c(Cl)cccc1Cl [FL-109, 3-(2,6-Dichlorobenzamido)-4-chlorophenylboronic acid]
Ki [1]: 61.5 ± 19.7 µM

O=C(Oc1ccccc1Br)c1cc(B(O)O)cc([N+](=O)[O-])c1 [FL-096, 3-(2-Bromophenoxycarbonyl)-5-nitro-phenylboronic acid]
Ki [1]: 137 ± 61 µM

O=C(Oc1ccc(OC(=O)c2cc(B(O)O)cc([N+](=O)[O-])c2)c(Cl)c1)c1cc(B(O)O)cc([N+](=O)[O-])c1 [FL-079, 3-Borono-5-nitrobenzoic acid 2-chloro-1,4-phenylene ester]
Ki [1]: 23.7 ± 3 µM | ΔH (Binding Enthalpy of Selected Compounds to 3CL^pro) [2]: -1.7 kcal/mol

CC(C)(C)c1cc(OC(=O)c2cc(B(O)O)cc([N+](=O)[O-])c2)ccc1OC(=O)c1cc(B(O)O)cc([N+](=O)[O-])c1 [FL-169, 3-Borono-5-nitrobenzoic acid, 2-tert-butyl-1,4-phenylene ester]
Ki [1]: 32.7 ± 2.5 µM

O=C(OCc1cccc(Cl)c1)c1cc(B(O)O)cc([N+](=O)[O-])c1 [FL-095, 3-(3-Chlorobenzyloxycarbonyl)-5-nitrophenylboronic acid]
Ki [1]: 91.8 ± 8.8 µM

O=C(Oc1ccc(OC(=O)c2cc(B(O)O)cc([N+](=O)[O-])c2)c2ccccc12)c1cc(B(O)O)cc([N+](=O)[O-])c1 [FL-167, 3-Borono-5-nitrobenzoic acid, 1,4-dihydroxynaphthalene ester]
Ki [1]: 10.2 ± 2.2 µM

O=C(Oc1ccc(OC(=O)c2cc(B(O)O)cc([N+](=O)[O-])c2)cc1)c1cc(B(O)O)cc([N+](=O)[O-])c1 [FL-078, 3-Borono-5-nitrobenzoic acid 1,4-phenylene ester]
Ki [1]: 6.7 ± 0.9 µM | ΔH (Binding Enthalpy of Selected Compounds to 3CL^pro) [2]: -4.9 kcal/mol

O=C(Oc1cccc(B(O)O)c1)c1c(Cl)cccc1Cl [FL-099, 3-(2,6-dichlorophenylcarbonyloxy)phenyl boronic acid]
Ki [1]: > 1000 µM

CCOC(=O)[C@H](Cc1ccccc1)NC(=O)c1cc(B(O)O)cc([N+](=O)[O-])c1 [FL-170, 3-borono-5-nitrobenzoyl-L-phenylalanine ethyl ester]
Ki [1]: 10.6 ± 7.5 µM

Cc1ccc(B(O)O)cc1NC(=O)c1c(Cl)cccc1Cl [FL-110, 3-(2,6-Dichlorobenzamido)-4-methylphenylboronic acid]
Ki [1]: 37 ± 9.7 µM

O=C(NCc1ccccc1)c1cccc(B(O)O)c1 [FL-1010, 3-(Benzylcarbamoyl)phenylboronic acid]
Ki [1]: 84 ± 45 µM

O=C(Oc1cccc(B(O)O)c1)c1ccc(C(=O)Oc2cccc(B(O)O)c2)cc1 [FL-156, 1,4-Benzenedicarboxylic acid, di 3-boronophenyl ester]
Ki [1]: 33 ± 9.4 µM

O=C(Oc1cc(OC(=O)c2cc(B(O)O)cc([N+](=O)[O-])c2)cc(OC(=O)c2cc(B(O)O)cc([N+](=O)[O-])c2)c1)c1cc(B(O)O)cc([N+](=O)[O-])c1 [FL-164, Tris-(3-borono-5-nitrobenzoic acid), 1,3,5-trihydroxybenzene ester]
Ki [1]: 79.6 ± 14.1 µM

O=C(Oc1ccccc1F)c1cc(B(O)O)cc([N+](=O)[O-])c1 [FL-081, 3-(2-Fluorophenoxycarbonyl)-5-nitrophenylboronic acid]
Ki [1]: 179 ± 70 µM

O=C(Oc1c(Cl)cc(Cl)cc1[N+](=O)[O-])c1cc(B(O)O)cc([N+](=O)[O-])c1 [FL-107, 3-(2,4-Dichloro-6-nitro-phenoxycarbonyl)-5-nitro-phenylboronic acid]
Ki [1]: 6.9 ± 0.3 µM

O=C(Oc1c(F)cccc1F)c1cc(B(O)O)cc([N+](=O)[O-])c1 [FL-082, 3-(2,6-Difluorophenoxycarbonyl)-5-nitrophenylboronic acid]
Ki [1]: 158 ± 109 µM

O=C(Oc1ccc(OC(=O)c2ccc(B(O)O)cc2F)c(Cl)c1)c1ccc(B(O)O)cc1F [FL-103, 4-Borono-2-fluorobenzoic acid 2-chloro-1,4-phenylene ester]
Ki [1]: 39.1 ± 2.1 µM

O=C(O)c1cc(NC(=O)c2ccccc2F)cc(B(O)O)c1 [FL-083, 3-(2-Fluorobenzamido)-5-carboxylphenylboronic acid]
Ki [1]: 104 ± 38 µM

O=C(Oc1c(Cl)cc(Cl)cc1Cl)c1cc(B(O)O)cc([N+](=O)[O-])c1 [FL-139, 3-(2,4,6-Trichlorophenoxycarbonyl)-5-nitro-phenylboronic acid]
Ki [1]: 73.3 ± 38 µM

O=C(Oc1c(Cl)cccc1[N+](=O)[O-])c1ccc(B(O)O)cc1F [FL-104, 4-(2-Chloro-6-nitrophenoxycarbonyl)-3-fluorophenylboronic acid]
Ki [1]: 18 ± 1 µM

O=[N+]([O-])c1cc(NS(=O)(=O)c2ccccc2)cc(B(O)O)c1 [FL-114, 3-benzenesulfonamido-5-nitrophenylboronic acid]
Ki [1]: 49.8 ± 4.4 µM

O=C(OC1c2ccccc2CC1Br)c1cc(B(O)O)cc([N+](=O)[O-])c1 (stereo not shown) [FL-090, 3-(2-Bromo-1-indanoxycarbonyl)-5-nitrophenylboronic acid]
Ki [1]: > 1000 µM

O=C(Oc1cc(=O)oc2ccccc12)c1cc(B(O)O)cc([N+](=O)[O-])c1 [FL-133, 3-(4-Coumarinoxycarbonyl)-5-nitrophenylboronic acid]
Ki [1]: > 1000 µM

O=C(Oc1cccc(OC(=O)c2cc(B(O)O)cc([N+](=O)[O-])c2)c1)c1cc(B(O)O)cc([N+](=O)[O-])c1 [FL-106, 3-Borono-5-nitrobenzoic acid 1,3-phenylene ester]
Ki [1]: 8.5 ± 0.5 µM | ΔH (Binding Enthalpy of Selected Compounds to 3CL^pro) [2]: -5.3 kcal/mol

O=C(Oc1c(Cl)c(Cl)c(OC(=O)c2cc(B(O)O)cc([N+](=O)[O-])c2)c(Cl)c1Cl)c1cc(B(O)O)cc([N+](=O)[O-])c1 [FL-141, 3-Borono-5-nitrobenzoic acid 2,3,5,6-tetrachloro-1,4-phenylene ester]
Ki [1]: 39.3 ± 11.7 µM

O=C(OCCN(CCOC(=O)c1cc(B(O)O)cc([N+](=O)[O-])c1)CCOC(=O)c1cc(B(O)O)cc([N+](=O)[O-])c1)c1cc(B(O)O)cc([N+](=O)[O-])c1 [FL-165, Tris(3-borono-5-nitrobenzoic acid), triethanolamine ester]
Ki [1]: 50.6 ± 21.5 µM

O=C(Oc1cccc(B(O)O)c1)c1cc(B(O)O)cc([N+](=O)[O-])c1 [FL-100, 3-(3-Boronophenoxycarbonyl)-5-nitrophenylboronic acid]
Ki [1]: 190 ± 100 µM

O=C(OCc1c(Cl)cccc1Cl)c1cc(B(O)O)cc([N+](=O)[O-])c1 [FL-086]
Ki [1]: > 1000 µM
